System: HCT116 colorectal cancer cells
Test: Cisplatin sensitization assay (96 h cell viability MTS);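 also: Test-compound concentration that lowers the Cisplatin IC50 by a set fold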
Type: cell-based
Conditions: compound and Cisplatin added simultaneously, Cisplatin sensitization value
Procedure, shortened: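 Compound and cisplatin added together as a full matrix of 2-fold serial dilutions from a top final concentration of 10 μM; cells incubated 96 h at 37° C, 5% CO2. Viability then read by MTS after 1 h further incubation; sensitization value reported in μM bins.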

CN1CCN(C(=O)C2CCCN(c3c(F)cncc3NC(=O)c3c(N)nn4cc(F)cnc34)C2)CC1 (stereo not shown) [I-N-289, 2-amino-6-fluoro-N-(5-fluoro-4-(3-(4-methylpiperazine-1-carbonyl)piperidin-1-yl)pyridin-3-yl)pyrazolo[1,5-a]pyrimidine-3-carboxamide]
Cisplatin Sensitization Assay: ++ (Cisplatin sensitization value>0.02 μM but <0.2 μM)

CN(C)C(=O)C1CCCN(c2ccncc2NC(=O)c2c(N)nn3cc(F)cnc23)C1 (stereo not shown) [I-N-290, 2-amino-N-(4-(3-(dimethylcarbamoyl)piperidin-1-yl)pyridin-3-yl)-6-fluoropyrazolo[1,5-a]pyrimidine-3-carboxamide]
Cisplatin Sensitization Assay: ++ (Cisplatin sensitization value>0.02 μM but <0.2 μM)

CN1CC[C@H](Oc2ccncc2NC(=O)c2c(N)nn3cc(F)cnc23)C1 [I-O-1, (S)-2-amino-6-fluoro-N-(4-((1-methylpyrrolidin-3-yl)oxy)pyridin-3-yl)pyrazolo[1,5-a]pyrimidine-3-carboxamide]
Cisplatin Sensitization Assay: +++ (Cisplatin sensitization value of <0.02 μM)

CN(C)Cc1ccc(Oc2ccncc2NC(=O)c2c(N)nn3cc(F)cnc23)cn1 [I-O-3, 2-amino-N-(4-((6-((dimethylamino)methyl)pyridin-3-yl)oxy)pyridin-3-yl)-6-fluoropyrazolo[1,5-a]pyrimidine-3-carboxamide]
Cisplatin Sensitization Assay: ++ (Cisplatin sensitization value>0.02 μM but <0.2 μM)

COc1ccncc1NC(=O)c1c(N)nn2cc(F)cnc12 [I-O-4, 2-amino-6-fluoro-N-(4-methoxypyridin-3-yl)pyrazolo[1,5-a]pyrimidine-3-carboxamide]
Cisplatin Sensitization Assay: ++ (Cisplatin sensitization value>0.02 μM but <0.2 μM)

Nc1nn2cc(F)cnc2c1C(=O)Nc1cnccc1O[C@H]1CN2CCC1CC2 [I-O-5, (R)-2-amino-6-fluoro-N-(4-(quinuclidin-3-yloxy)pyridin-3-yl)pyrazolo[1,5-a]pyrimidine-3-carboxamide]
Cisplatin Sensitization Assay: +++ (Cisplatin sensitization value of <0.02 μM)

Nc1nn2cc(F)cnc2c1C(=O)Nc1cnccc1Oc1cccnc1 [I-O-7, 2-amino-6-fluoro-N-(4-(pyridin-3-yloxy)pyridin-3-yl)pyrazolo[1,5-a]pyrimidine-3-carboxamide]
Cisplatin Sensitization Assay: ++ (Cisplatin sensitization value>0.02 μM but <0.2 μM)

Nc1nn2cc(F)cnc2c1C(=O)Nc1cnccc1OC1CCC(C(=O)O)CC1 (stereo not shown) [I-O-8, 4-((3-(2-amino-6-fluoropyrazolo[1,5-a]pyrimidine-3-carboxamido)pyridin-4-yl)oxy)cyclohexanecarboxylic acid]
Cisplatin Sensitization Assay: + (Cisplatin sensitization value>0.2 μM but <5 μM)

Nc1nn2cc(F)cnc2c1C(=O)Nc1cnccc1O[C@H]1CCCN(C2COC2)C1 [I-O-9, (S)-2-amino-6-fluoro-N-(4-((1-(oxetan-3-yl)piperidin-3-yl)oxy)pyridin-3-yl)pyrazolo[1,5-a]pyrimidine-3-carboxamide]
Cisplatin Sensitization Assay: ++ (Cisplatin sensitization value>0.02 μM but <0.2 μM)

CN1CCC(Oc2ccncc2NC(=O)c2c(N)nn3cc(F)cnc23)CC1 [I-O-12, 2-amino-6-fluoro-N-(4-((1-methylpiperidin-4-yl)oxy)pyridin-3-yl)pyrazolo[1,5-a]pyrimidine-3-carboxamide]
Cisplatin Sensitization Assay: +++ (Cisplatin sensitization value of <0.02 μM)

COC(=O)[C@H]1CC[C@H](Oc2ccncc2NC(=O)c2c(N)nn3cc(F)cnc23)CC1 [I-O-13, (1r,4r)-methyl 4-((3-(2-amino-6-fluoropyrazolo[1,5-a]pyrimidine-3-carboxamido)pyridin-4-yl)oxy)cyclohexanecarboxylate]
Cisplatin Sensitization Assay: +++ (Cisplatin sensitization value of <0.02 μM)

CCOc1ccncc1NC(=O)c1c(N)nn2cc(F)cnc12 [I-O-14, 2-amino-N-(4-ethoxypyridin-3-yl)-6-fluoropyrazolo[1,5-a]pyrimidine-3-carboxamide]
Cisplatin Sensitization Assay: +++ (Cisplatin sensitization value of <0.02 μM)

Nc1nn2cc(F)cnc2c1C(=O)Nc1cnccc1O[C@H]1Cc2nccn2C1 [I-O-16, (S)-2-amino-N-(4-((6,7-dihydro-5H-pyrrolo[1,2-a]imidazol-6-yl)oxy)pyridin-3-yl)-6-fluoropyrazolo[1,5-a]pyrimidine-3-carboxamide]
Cisplatin Sensitization Assay: +++ (Cisplatin sensitization value of <0.02 μM)

CN(C)C(=O)[C@H]1CC[C@@H](Oc2ccncc2NC(=O)c2c(N)nn3cc(F)cnc23)CC1 [I-O-17, 2-amino-N-(4-(((1s,4s)-4-(dimethylcarbamoyl)cyclohexyl)oxy)pyridin-3-yl)-6-fluoropyrazolo[1,5-a]pyrimidine-3-carboxamide]
Cisplatin Sensitization Assay: +++ (Cisplatin sensitization value of <0.02 μM)

CN1CCN(C(=O)[C@H]2CC[C@@H](Oc3ccncc3NC(=O)c3c(N)nn4cc(F)cnc34)CC2)CC1 [I-O-19, 2-amino-6-fluoro-N-(4-(((1s,4s)-4-(4-methylpiperazine-1-carbonyl)cyclohexyl)oxy)pyridin-3-yl)pyrazolo[1,5-a]pyrimidine-3-carboxamide]
Cisplatin Sensitization Assay: +++ (Cisplatin sensitization value of <0.02 μM)

CCC(C#N)c1cnc2c(C(=O)Nc3cnccc3OC)c(N)nn2c1 (stereo not shown) [I-O-20, 2-amino-6-(1-cyanopropyl)-N-(4-methoxypyridin-3-yl)pyrazolo[1,5-a]pyrimidine-3-carboxamide]
Cisplatin Sensitization Assay: ++ (Cisplatin sensitization value>0.02 μM but <0.2 μM)

COc1ccncc1NC(=O)c1c(N)nn2cc(C(C)C#N)cnc12 (stereo not shown) [I-O-21, 2-amino-6-(1-cyanoethyl)-N-(4-methoxypyridin-3-yl)pyrazolo[1,5-a]pyrimidine-3-carboxamide]
Cisplatin Sensitization Assay: ++ (Cisplatin sensitization value>0.02 μM but <0.2 μM)

CN1CCC(Oc2ccncc2NC(=O)c2c(N)nn3cc(CC#N)cnc23)CC1 [I-O-23, 2-amino-6-(cyanomethyl)-N-(4-((1-methylpiperidin-4-yl)oxy)pyridin-3-yl)pyrazolo[1,5-a]pyrimidine-3-carboxamide]
Cisplatin Sensitization Assay: +++ (Cisplatin sensitization value of <0.02 μM)

CN(C)CCOc1ccncc1NC(=O)c1c(N)nn2cc(CC#N)cnc12 [I-O-24, 2-amino-6-(cyanomethyl)-N-(4-(2-(dimethylamino)ethoxy)pyridin-3-yl)pyrazolo[1,5-a]pyrimidine-3-carboxamide]
Cisplatin Sensitization Assay: ++ (Cisplatin sensitization value>0.02 μM but <0.2 μM)

N#CCc1cnc2c(C(=O)Nc3cnccc3Oc3ccccc3)c(N)nn2c1 [I-O-25, 2-amino-6-(cyanomethyl)-N-(4-phenoxypyridin-3-yl)pyrazolo[1,5-a]pyrimidine-3-carboxamide]
Cisplatin Sensitization Assay: +++ (Cisplatin sensitization value of <0.02 μM)

COc1ccncc1NC(=O)c1c(N)nn2cc(CC#N)cnc12 [I-O-26, 2-amino-6-(cyanomethyl)-N-(4-methoxypyridin-3-yl)pyrazolo[1,5-a]pyrimidine-3-carboxamide]
Cisplatin Sensitization Assay: ++ (Cisplatin sensitization value>0.02 μM but <0.2 μM)

COc1cc(Cl)ncc1NC(=O)c1c(N)nn2cc(CC#N)cnc12 [I-O-27, 2-amino-N-(6-chloro-4-methoxypyridin-3-yl)-6-(cyanomethyl)pyrazolo[1,5-a]pyrimidine-3-carboxamide]
Cisplatin Sensitization Assay: ++ (Cisplatin sensitization value>0.02 μM but <0.2 μM)

CCOc1ccncc1NC(=O)c1c(N)nn2cc(CC#N)cnc12 [I-O-28, 2-amino-6-(cyanomethyl)-N-(4-ethoxypyridin-3-yl)pyrazolo[1,5-a]pyrimidine-3-carboxamide]
Cisplatin Sensitization Assay: +++ (Cisplatin sensitization value of <0.02 μM)

COCCOc1ccncc1NC(=O)c1c(N)nn2cc(CC#N)cnc12 [I-O-29, 2-amino-6-(cyanomethyl)-N-(4-(2-methoxyethoxy)pyridin-3-yl)pyrazolo[1,5-a]pyrimidine-3-carboxamide]
Cisplatin Sensitization Assay: +++ (Cisplatin sensitization value of <0.02 μM)

N#CCc1cnc2c(C(=O)Nc3cnccc3OC3CCOCC3)c(N)nn2c1 [I-O-30, 2-amino-6-(cyanomethyl)-N-(4-((tetrahydro-2H-pyran-4-yl)oxy)pyridin-3-yl)pyrazolo[1,5-a]pyrimidine-3-carboxamide]
Cisplatin Sensitization Assay: +++ (Cisplatin sensitization value of <0.02 μM)

N#CCc1cnc2c(C(=O)Nc3cnccc3O[C@@H]3CCOC3)c(N)nn2c1 [I-O-31, (R)-2-amino-6-(cyanomethyl)-N-(4-((tetrahydrofuran-3-yl)oxy)pyridin-3-yl)pyrazolo[1,5-a]pyrimidine-3-carboxamide]
Cisplatin Sensitization Assay: +++ (Cisplatin sensitization value of <0.02 μM)

N#CCc1cnc2c(C(=O)Nc3cnccc3OCC3CC3)c(N)nn2c1 [I-O-32, 2-amino-6-(cyanomethyl)-N-(4-(cyclopropylmethoxy)pyridin-3-yl)pyrazolo[1,5-a]pyrimidine-3-carboxamide]
Cisplatin Sensitization Assay: +++ (Cisplatin sensitization value of <0.02 μM)

N#CCc1cnc2c(C(=O)Nc3cnccc3OCCO)c(N)nn2c1 [I-O-33, 2-amino-6-(cyanomethyl)-N-(4-(2-hydroxyethoxy)pyridin-3-yl)pyrazolo[1,5-a]pyrimidine-3-carboxamide]
Cisplatin Sensitization Assay: ++ (Cisplatin sensitization value>0.02 μM but <0.2 μM)

N#CCc1cnc2c(C(=O)Nc3cnccc3OCC(F)(F)F)c(N)nn2c1 [I-O-34, 2-amino-6-(cyanomethyl)-N-(4-(2,2,2-trifluoroethoxy)pyridin-3-yl)pyrazolo[1,5-a]pyrimidine-3-carboxamide]
Cisplatin Sensitization Assay: ++ (Cisplatin sensitization value>0.02 μM but <0.2 μM)

CC(C)Oc1ccncc1NC(=O)c1c(N)nn2cc(CC#N)cnc12 [I-O-35, 2-amino-6-(cyanomethyl)-N-(4-isopropoxypyridin-3-yl)pyrazolo[1,5-a]pyrimidine-3-carboxamide]
Cisplatin Sensitization Assay: +++ (Cisplatin sensitization value of <0.02 μM)

N#CCc1cnc2c(C(=O)Nc3cnccc3OC3CCC3)c(N)nn2c1 [I-O-36, 2-amino-6-(cyanomethyl)-N-(4-cyclobutoxypyridin-3-yl)pyrazolo[1,5-a]pyrimidine-3-carboxamide]
Cisplatin Sensitization Assay: +++ (Cisplatin sensitization value of <0.02 μM)

From patent US11370798B2 (Vertex Pharmaceuticals Incorporated, priority 2012, dated 2022)
